# Source: paper PMC10643673, “An immunomodulating peptide with potential to suppress tumour growth and autoimmunity” (Scientific Reports, 2023)
# Where a SMILES comes first, the peptide text is derived from it. [ ]: non-standard residue; d: D form. Gly(decyl) = CCCCCCCCCC[C@H](N)C(=O)O
# B1: rIL-12p70: recombinant IL-12p70 (Peprotech), 10 ng/mL (protein, UniProt P29459 23-219; P29460 23-328, looked up)
# Interleukin-12 subunit alpha: RNLPVATPDPGMFPCLHHSQNLLRAVSNMLQKARQTLEFYPCTSEEIDHEDITKDKTSTVEACLPLELTKNESCLNSRETSFITNGSCLASRKTSFMMALCLSSIYEDLKMYQVEFKTMNAKLLMDPKRQIFLDQNMLAVIDELMQALNFNSETVPQKSSLEEPDFYKTKIKLCILLHAFRIRAVTIDRVMSYLNAS
# Interleukin-12 subunit beta: IWELKKDVYVVELDWYPDAPGEMVVLTCDTPEEDGITWTLDQSSEVLGSGKTLTIQVKEFGDAGQYTCHKGGEVLSHSLLLLHKKEDGIWSTDILKDQKEPKNKTFLRCEAKNYSGRFTCWWLTTISTDLTFSVKSSRGSSDPQGVTCGAATLSAERVRGDNKEYEYSVECQEDSACPAAEESLPIEVMVDAVHKLKYENYTSSFFIRDIIKPDPPKNLQLKPLKNSRQVEVSWEYPDTWSTPHSYFSLTFCVQVQGKSKREKKDRVFTDKTSATVICRKNASISVRAQDRYYSSSWSEWASVPCS
# Experiments:
# human NK cells = assay: Isolated CD3−/CD56+dim NK cell cultures, flow cytometry; format: cell-based; settings: 24 h; all concentrations
# Procedure: CD3−/CD56+^dim NK cell populations were isolated from PBMCs using immuno-magnetic separation (Stem cell, Lot no. 18A86421). CD56^+ NK cells were resuspended in RPMI-10 (RPMI-1640 supplemented with 10% heat inactivated FBS, 100 U/mL penicillin, 100 µg/mL streptomycin, 2 mM L-glutamine, and 50 µM β-mercaptoethanol) at 0.25 × 10^6/mL and plated at a density of 2.5 × 10^4 per well (100 µL) in 96-well, flat bottom culture plates. Purified NK cells were cultured together with either IK14004 or recombinant IL-2 (InVitrogen, Lot #223086-011) for […] at 37 °C, 5% CO2.
# (§1) Staining was performed to determine cell viability (Flexible Viability Dye eFluorTM 780; ThermoFisher) and expression of extracellular/intracellular markers assessed using fluorescently-labelled antibodies against human proteins within different cell populations. […] After 24 h cells were collected and CD4+ and CD8+ T cells assessed for TCRα/β expression (PE; BioLegend). Phospho-STAT4 in was assessed in TCR-activated CD3 + T cell and PBMC cultures. […] Cells were then stained with fluorochrome conjugated anti-pSTAT4 antibody (eBioscience, Lot# 12-9044) and intracellular expression determined within CD8+ T cells by flow cytometry. Similarly, anti-CD3-stimulated PBMC cultures were exposed only to recombinant IL-12p70 (Peprotech, Lot #0617596) and pSTAT4 assessed within CD4+ /CD8+ T cell fractions. […]
# [1] = tested on: exhausted CD4+ T cells derived from MBP-tracker mouse splenocytes; assay: Murine splenocyte-derived exhausted CD4+ T cell assay; format: cell-based; settings: highest concentration 1.25 µM
# Procedure: Concept Life Sciences have established a proprietary method for assessing murine CD4+ T cell exhaustion in vitro using Tg4-Ly5.1 MBP-Tracker Mice obtained from the University of Edinburgh. Spleens were removed from transgenic B10PLxC57BL/6 mice and processed to generate a single cell suspension of splenocytes. Myelin basic protein (MBP)-Tracker splenocytes were resuspended at 3 × 10^6/mL and stimulated 72 h at approximately 37 °C, 5% CO2, with altered peptide ligand (APL)-MBP (to generate exhausted cells). Following stimulation, T cells were purified by Ficoll density gradient, and subsequently re-plated at 2 × 10^6/mL in 20 U/mL IL-2 for four days. At the end of this rest period, cells were resuspended (4 × 10^5/mL, final 2 × 10^4 per well) and restimulated using irradiated APCs (from B10PLxC57BL/6 mice, 4 × 10^6/mL, final concentration of 2 × 10^5 cells per well) plus a single dose of APL-MBP peptide together with IK14004 peptide for 72 h.
# Supernatants were sampled from culture wells for assessment of IL-2 and IFN-γ by ELISA (eBioScience, Lot # 4280695 and Lot #. 4308729, respectively) and flow cytometry used for assessment of CD25 and Ki67 (eBioScience, Lot # 4276862 and Lot # 4296884, respectively). Anti-PD-1 and IgG2a antibodies were obtained from BioXCell.
# [2] = tested on: K562 erythroleukemic cells; assay: K562/PBMC co-culture cytotoxicity assay (Calcein AM release); settings: PBMCs exposed to peptide 48 h, then 4 h co-culture at 5:1 ratio; 0.08 to 1.25 µM
# Procedure: Human PBMCs (2.5 × 10^5 cells per well) were cultured in 96-well round-bottom tissue culture plates for 48 h at 37 °C, 5% CO2 in the presence of IK14004 and IKD14004 peptides. After peptide exposure, PBMCs were co-cultured with Calcein AM stained K562 cells (5 × 10^4/well) at a 5:1 ratio for 4 h at 37 °C, 5% CO2. For spontaneous release control Calcein AM-K562 cells alone were treated with PBS (20 µL). For maximal release control Calcein AM-K562 cells alone were treated with lysis buffer (20 µL). After 4 h culture, 150 µL supernatant were transferred to black wall plates and intensity of Calcein green fluorescence release detected using GloMax® Discover to determine percentage of specific cytotoxicity.
# [3] = tested on: splenocyte-derived CD4+ T cells and NK cells; settings: mouse, in vivo
# Procedure: LLC cells sourced from ATCC. The Lewis lung cancer cell line was cultured to approximately 70% confluency before cells were collected and resuspended at 5 × 10^6 /mL in sterile HBSS. […] were injected subcutaneously with 5 × 10^5 cells (100 µL) into the right flank. Mice were randomly assigned to treatment groups 5 days after tumour cell implantation such that the average tumour size was approximately equal between the two groups. Test substance IK14004 or vehicle were administered twice weekly (Monday and Thursday) via intraperitoneal (i.p.) injections, from day 5 post tumour cell implantation, until the tumours reached an average of 10 mm in diameter in the vehicle treated group. Tumours were measured three times each week using digital callipers and once the mean tumour size for the vehicle group reached 10 mm in diameter, mice were sacrificed by cervical dislocation and tumour and spleens collected. Spleens were processed into single cell suspensions and the red blood cells lysed. Fresh splenocyte suspensions were assessed by trypan blue exclusion. From fresh splenocyte suspensions, 1 × 10^6 viable cells were stained using a viability dye (Flexible Viability Dye eFluorTM 780; ThermoFisher), CD4 (BV605), NK1.1 (BV510), CD25 (AF488), IL-12Rβ1 (PE) and IL-12Rβ2 (APC) for flow cytometry.
# [4] = tested on: splenocytes / CD4+ T cells; assay: Splenocytes from LLC lung metastasis model, fresh or cultured overnight with/without TCR stimulation; format: in vivo, mouse; settings: peptide- vs vehicle-treated mice; after 24 h
# Procedure: Spleens were collected and processed into a single cell suspension. Fresh splenocytes were assessed by means of flow cytometry with CD28 (BV421) and 2 × 10^5 cells per well were then cultured overnight with or without TCR stimulation (anti-CD3 alone or in combination with anti-CD28 both at 2 µg/mL, plate bound overnight in PBS at 4 °C). After overnight culture cell free supernatants were collected and assessed for IFN-γ and IL-2 by ELISA (eBioscience Kits) and set up in technical triplicate. Cells before and after stimulation were stained for flow cytometry (viability, CD4, CD28 (BV711), IL-12Rβ1 and IL-12Rβ2.
# [5] = tested on: Lewis lung cancer (LLC) cells; assay: Cancer cell proliferation assay (SRB); format: cell-based, mouse; settings: 72 h, doxorubicin 2.5 µM, positive control
# Procedure: Lewis lung cancer (LLC) cells (sourced from the American Type Culture Collection) were seeded into 96-well plates (1000 cells/well) in complete cell culture medium and allowed to attach for 24 h (37 °C, 5% CO2 in air). Next, an equal volume of either cell culture medium only, or 2 × concentration of drug dissolved in cell culture medium, was added to each of 5 replicate wells (technical replicates) to expose cells to concentrations of IK14004 in the dose range from 0 to 5 µM. Cells were cultured for 72 h in the presence of either IK14004 or Doxorubicin (2.5 µM; positive control) and then the cell culture medium was removed and the attached cells fixed in ice-cold trichloroacetic acid. Fixed cells were stained with Sulforhodamine B (SRB) and then washed with 1% acetic acid to remove unbound dye. The retained dye was solubilised in 10 mM Tris base solution and the absorbance at 550 nm was measured with the baseline (media only without cells) subtracted. The data were normalised between the maximum proliferation (100%, cells with no drug) and the starting cell density (0%, cells before addition of drug). Each experiment was performed on two independent occasions (biological replicates).
# [6] = tested on: human PBMCs (CD4+/CD8+ T cells, NK cells); assay: Anti-CD3-stimulated human PBMC cultures, flow cytometry/ELISA; format: cell-based; settings: rIL-12p70 10 ng/mL; 72 h
# Procedure: Preparations of peripheral blood mononuclear cells (PBMCs) and isolated T cells from buffy coat samples were performed using SepMate tubes, EasySep selection and enrichment kits, Lymphoprep, RoboSep Buffer, and EasySep magnets (STEMCELL Company). PBMCs were resuspended in RPMI-10 (RPMI-1640; ThermoFisher) supplemented with 10% heat inactivated Foetal Bovine Serum (LabTech), 100 U/mL penicillin, 100 µg/mL streptomycin (ThermoFisher), 2 mM L-glutamine (ThermoFisher), and 50 µM β-mercaptoethanol (ThermoFisher) at 1 × 10^6 cells/mL and plated at a density of 1 × 10^5 per well (100 µL) in 96-well, flat-bottom culture plates. […]
# as §1, with “[…] Flow cytometry data” for “Similarly, anti-CD3-stimulated PBMC cultures”, “exported as FCS files from Attune™ NxT software” for “exposed only to recombinant IL-12p70 (Peprotech, Lot #0617596)”, “analysed using FlowJo™ software.” for “pSTAT4 assessed within CD4+ /CD8+ T cell fractions.”
molecule,measurement,setting,value
"CCCCCCCCCC[C@H](NC(=O)[C@H](CCCCCCCCCC)NC(=O)[C@H](CCCCCCCCCC)NC(=O)[C@H](CCCCCCCCCC)NC(=O)[C@H](CCCNC(=N)N)NC(=O)[C@H](Cc1ccc(O)cc1)NC(=O)[C@H](CC(C)C)NC(=O)[C@@H]1CCCN1C(=O)[C@H](CC(N)=O)NC(=O)[C@H](CCCCN)NC(=O)[C@H](C)NC(=O)[C@H](CCCCN)NC(=O)[C@H](CO)NC(=O)[C@@H](N)CCCNC(=N)N)C(N)=O [IK14004, RSKAKNPLYR-(2)Adod-(2)Adod-(2)Adod-(2)Adod-amide] (H-RSKAKNPLYR[Gly(decyl)][Gly(decyl)][Gly(decyl)][Gly(decyl)]-NH2)",percentage of viable NK cells,human NK cells,remained unchanged
same,visual signs of cell death at end of splenocyte culture,[1],no visual signs of cell death
same,significant K562 cytotoxicity,[2],at most concentrations
same,viability of freshly harvested splenocytes,[3],~100%
same,viability of cultured splenocytes,[4],no differences
COc1cccc2c1C(=O)c1c(O)c3c(c(O)c1C2=O)C[C@@](O)(C(=O)CO)C[C@@H]3O[C@H]1C[C@H](N)[C@H](O)[C@H](C)O1 [doxorubicin],proliferation of the LLC cell line,[5],total cell kill
B1,percentage of pSTAT4-expressing CD8+ T cells,[6],as did the percentage of pSTAT4-expressing CD8+ T cells
same,proportion of pSTAT4-expressing CD4+ T cells,[6],increased
